# Target: 5-hydroxytryptamine receptor 2A (Rattus norvegicus) (UniProt P14842)
# Test: Binding affinity was performed using [3H]ketanserin as the radioligand and stably transfected NIH3T3 cells expressing the 5-hydroxytryptamine 2A receptor (GF-62 cells).
# Sequence of 5-hydroxytryptamine receptor 2A (Rattus norvegicus) (P14842 whole entry, looked up): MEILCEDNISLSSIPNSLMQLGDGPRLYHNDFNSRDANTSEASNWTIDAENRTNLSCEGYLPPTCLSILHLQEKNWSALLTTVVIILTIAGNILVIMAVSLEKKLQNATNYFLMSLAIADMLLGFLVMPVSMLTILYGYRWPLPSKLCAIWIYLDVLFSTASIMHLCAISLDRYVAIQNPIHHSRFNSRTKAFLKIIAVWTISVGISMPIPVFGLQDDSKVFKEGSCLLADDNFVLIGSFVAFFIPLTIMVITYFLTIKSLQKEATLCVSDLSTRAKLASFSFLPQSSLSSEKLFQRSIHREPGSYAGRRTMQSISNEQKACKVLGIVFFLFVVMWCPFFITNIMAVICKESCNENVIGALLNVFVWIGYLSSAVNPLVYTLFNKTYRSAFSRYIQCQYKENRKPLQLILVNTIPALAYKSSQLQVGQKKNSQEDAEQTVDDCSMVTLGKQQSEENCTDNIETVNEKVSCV
row,Compound,Ki [nM]
1,CC1(C)c2ccccc2C(CN)c2ccccc21,330
2,c1ccc2c(c1)C1c3ccccc3C2C2NC12 (centres undefined),> 10000
3,CC1(CN)c2ccccc2Cc2ccccc21,65
4,NCC1CC2c3ccccc3C1c1ccccc12 (centres undefined),9530
5,NCC1Cc2ccccc2-c2ccccc21 (centres undefined),711
6,NCC1CCCc2ccccc21 (centres undefined),> 10000
7,NCC1c2ccccc2CCc2ccccc21,112
8,NCCc1ccccc1Cc1ccccc1,1810
9,NCC12CCC(c3ccccc31)c1ccccc12,770
10,CC(N)C1c2ccccc2Cc2ccccc21 (centres undefined),193
11,NCC12CC(c3ccccc31)c1ccccc12,6780
12,NC1CC2c3ccccc3C1c1ccccc12 (centres undefined),> 10000
13,c1ccc2c(c1)Cc1cccc3c1C2CNC3 (centres undefined),296
14,NCc1c2ccccc2cc2ccccc12,2300

# From ChEMBL document CHEMBL1135604, “Geometry-affinity relationships of the selective serotonin receptor ligand 9-(aminomethyl)-9,10-dihydroanthracene” (J Med Chem, 2002)
